{"source": "paper PMC10046369", "about": "“Low-Affinity/High-Selectivity Dopamine Transport Inhibition Sufficient to Rescue Cognitive Functions in the Aging Rat” (Biomolecules, 2023)", "test_in_all_cases": "biochemical", "set-up_in_all_cases": "KINOMEscan competition binding panel, per cent of control", "settings_in_all_cases": "read-out: %Ctrl @ 2800nM", "key": {"[1]": {"target": "AKT3 (Homo sapiens, UniProt Q9Y243)", "sequence (Q9Y243 whole entry)": "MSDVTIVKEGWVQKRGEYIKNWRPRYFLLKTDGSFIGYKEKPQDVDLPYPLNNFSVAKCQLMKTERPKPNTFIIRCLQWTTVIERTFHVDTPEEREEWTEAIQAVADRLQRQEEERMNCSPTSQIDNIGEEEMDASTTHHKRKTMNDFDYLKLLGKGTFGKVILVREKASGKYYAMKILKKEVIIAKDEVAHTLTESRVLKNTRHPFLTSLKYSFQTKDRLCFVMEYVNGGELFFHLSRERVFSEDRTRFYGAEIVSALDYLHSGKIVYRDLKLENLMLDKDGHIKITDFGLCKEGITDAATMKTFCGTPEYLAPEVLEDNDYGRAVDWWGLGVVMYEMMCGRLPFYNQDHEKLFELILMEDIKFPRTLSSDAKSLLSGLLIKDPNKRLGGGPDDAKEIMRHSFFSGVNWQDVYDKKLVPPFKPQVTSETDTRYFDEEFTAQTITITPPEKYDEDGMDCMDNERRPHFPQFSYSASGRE", "in_short": "(§1)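 Values are expressed as percent of control, calculated as ((test − positive control)/(negative control − positive control)) × 100, so lower numbers mean stronger hits. Binding was measured by KINOMEscan competition assay in a 450-kinase human panel including disease mutants, using the contractor's validated protocol.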"}, "[2]": {"target": "AURKB (Homo sapiens, UniProt Q96GD4)", "sequence (Q96GD4 whole entry)": "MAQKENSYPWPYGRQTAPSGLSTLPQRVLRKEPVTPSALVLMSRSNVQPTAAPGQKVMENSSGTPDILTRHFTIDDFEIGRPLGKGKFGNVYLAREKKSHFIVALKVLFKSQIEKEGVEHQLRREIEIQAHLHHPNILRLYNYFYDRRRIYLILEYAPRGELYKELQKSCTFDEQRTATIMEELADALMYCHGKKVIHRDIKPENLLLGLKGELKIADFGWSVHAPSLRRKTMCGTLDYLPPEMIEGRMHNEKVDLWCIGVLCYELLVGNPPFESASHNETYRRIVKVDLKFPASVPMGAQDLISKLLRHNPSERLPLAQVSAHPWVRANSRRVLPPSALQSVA", "in_short": "as §1"}, "[3]": {"target": "AURKC (Homo sapiens, UniProt Q9UQB9)", "sequence (Q9UQB9 whole entry)": "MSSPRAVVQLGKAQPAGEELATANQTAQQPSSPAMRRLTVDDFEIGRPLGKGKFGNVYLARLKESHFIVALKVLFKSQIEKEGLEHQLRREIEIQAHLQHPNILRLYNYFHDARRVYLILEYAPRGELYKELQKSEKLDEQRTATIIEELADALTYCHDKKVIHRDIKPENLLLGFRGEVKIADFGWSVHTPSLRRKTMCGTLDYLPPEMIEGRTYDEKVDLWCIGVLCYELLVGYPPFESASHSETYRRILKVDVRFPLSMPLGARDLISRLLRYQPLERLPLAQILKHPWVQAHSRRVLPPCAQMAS", "in_short": "as §1"}, "[4]": {"target": "BLK (Homo sapiens, UniProt P51451)", "in_short": "as §1"}, "[5]": {"target": "CAMK2B (Homo sapiens, UniProt Q13554)", "in_short": "as §1"}, "[6]": {"target": "CDK8 (Homo sapiens, UniProt P49336)", "in_short": "as §1"}, "[7]": {"target": "CHEK1 (Homo sapiens, UniProt O14757)", "in_short": "as §1"}, "[8]": {"target": "CSNK2A2 (Homo sapiens, UniProt P19784)", "sequence (P19784 whole entry)": "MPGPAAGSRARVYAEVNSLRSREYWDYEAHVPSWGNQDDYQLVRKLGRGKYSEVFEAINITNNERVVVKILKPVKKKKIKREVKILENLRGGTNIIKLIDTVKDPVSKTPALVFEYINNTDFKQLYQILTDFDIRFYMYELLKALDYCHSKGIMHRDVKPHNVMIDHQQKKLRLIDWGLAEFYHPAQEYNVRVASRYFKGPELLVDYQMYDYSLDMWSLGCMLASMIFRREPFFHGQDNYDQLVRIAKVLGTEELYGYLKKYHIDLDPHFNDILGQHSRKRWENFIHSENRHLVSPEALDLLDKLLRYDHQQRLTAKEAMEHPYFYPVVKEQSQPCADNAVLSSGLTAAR", "in_short": "as §1"}, "[9]": {"target": "T1, DLK (Homo sapiens, UniProt Q12852)", "T1 construct": "gene MAP3K12", "in_short": "as §1"}, "[10]": {"target": "T2, ICK (Homo sapiens, UniProt Q9UPZ9)", "T2 construct": "gene CILK1", "in_short": "as §1"}, "[11]": {"target": "INSR (Homo sapiens, UniProt P06213)", "in_short": "as §1"}, "[12]": {"target": "IRAK3 (Homo sapiens, UniProt Q9Y616)", "in_short": "as §1"}, "[13]": {"target": "MAP4K2 (Homo sapiens, UniProt Q12851)", "in_short": "as §1"}, "[14]": {"target": "MAST1 (Homo sapiens, UniProt Q9Y2H9)", "sequence (Q9Y2H9 whole entry)": "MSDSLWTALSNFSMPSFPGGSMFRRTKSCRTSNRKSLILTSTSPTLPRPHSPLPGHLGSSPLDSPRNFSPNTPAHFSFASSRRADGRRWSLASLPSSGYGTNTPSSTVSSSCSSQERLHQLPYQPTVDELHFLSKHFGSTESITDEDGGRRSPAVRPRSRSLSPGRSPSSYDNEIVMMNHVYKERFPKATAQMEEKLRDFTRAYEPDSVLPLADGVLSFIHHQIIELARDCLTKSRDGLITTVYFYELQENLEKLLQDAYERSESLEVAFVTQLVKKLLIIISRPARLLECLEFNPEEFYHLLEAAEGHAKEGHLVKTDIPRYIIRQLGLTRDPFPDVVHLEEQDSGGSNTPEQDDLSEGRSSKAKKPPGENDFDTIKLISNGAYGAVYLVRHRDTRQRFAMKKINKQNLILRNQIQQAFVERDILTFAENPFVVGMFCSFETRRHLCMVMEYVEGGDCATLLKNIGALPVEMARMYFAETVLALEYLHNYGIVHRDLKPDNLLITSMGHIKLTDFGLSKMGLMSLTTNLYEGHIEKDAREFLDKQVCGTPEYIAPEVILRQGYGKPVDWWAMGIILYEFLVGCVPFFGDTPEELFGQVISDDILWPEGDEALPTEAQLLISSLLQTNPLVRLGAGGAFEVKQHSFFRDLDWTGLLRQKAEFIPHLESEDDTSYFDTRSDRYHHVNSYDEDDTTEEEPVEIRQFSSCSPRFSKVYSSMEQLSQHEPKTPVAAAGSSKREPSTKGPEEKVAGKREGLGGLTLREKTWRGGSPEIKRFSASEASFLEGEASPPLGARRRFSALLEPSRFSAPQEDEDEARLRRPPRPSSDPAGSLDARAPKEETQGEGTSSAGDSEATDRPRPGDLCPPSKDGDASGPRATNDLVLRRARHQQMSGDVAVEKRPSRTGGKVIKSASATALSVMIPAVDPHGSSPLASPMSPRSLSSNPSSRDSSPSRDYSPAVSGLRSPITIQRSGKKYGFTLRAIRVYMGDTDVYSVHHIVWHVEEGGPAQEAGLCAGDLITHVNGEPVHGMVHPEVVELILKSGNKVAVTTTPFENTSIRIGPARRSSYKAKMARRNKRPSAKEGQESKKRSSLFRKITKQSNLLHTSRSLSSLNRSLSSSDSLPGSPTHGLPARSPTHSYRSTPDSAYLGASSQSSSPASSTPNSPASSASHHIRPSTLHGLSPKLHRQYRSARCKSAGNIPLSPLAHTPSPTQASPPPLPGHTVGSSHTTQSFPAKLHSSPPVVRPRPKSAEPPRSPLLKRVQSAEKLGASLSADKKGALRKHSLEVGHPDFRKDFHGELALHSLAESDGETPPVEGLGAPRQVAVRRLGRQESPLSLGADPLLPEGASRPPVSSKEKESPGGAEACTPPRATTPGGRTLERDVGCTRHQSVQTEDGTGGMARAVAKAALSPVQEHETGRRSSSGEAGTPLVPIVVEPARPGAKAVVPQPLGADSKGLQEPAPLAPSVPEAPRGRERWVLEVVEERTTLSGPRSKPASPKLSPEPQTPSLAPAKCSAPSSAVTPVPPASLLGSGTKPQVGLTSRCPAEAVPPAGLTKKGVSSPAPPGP", "in_short": "as §1"}, "[15]": {"target": "T3, MEK6 (Homo sapiens, UniProt P52564)", "T3 construct": "gene MAP2K6", "in_short": "as §1"}, "[16]": {"target": "T4, MLK2 (Homo sapiens, UniProt Q02779)", "T4 construct": "gene MAP3K10", "in_short": "as §1"}, "[17]": {"target": "NEK5 (Homo sapiens, UniProt Q6P3R8)", "in_short": "as §1"}, "[18]": {"target": "PAK4 (Homo sapiens, UniProt O96013)", "in_short": "as §1"}, "[19]": {"target": "T5, PCTK2 (Homo sapiens, UniProt Q00537)", "T5 construct": "gene CDK17", "in_short": "as §1"}, "[20]": {"target": "T6, PCTK3 (Homo sapiens, UniProt Q07002)", "T6 construct": "gene CDK18", "in_short": "as §1"}, "[21]": {"target": "PIK3CG (Homo sapiens, UniProt P48736)", "in_short": "as §1"}, "[22]": {"target": "T7, PIK4CB (Homo sapiens, UniProt Q9UBF8)", "T7 construct": "gene PI4KB", "in_short": "as §1"}, "[23]": {"target": "PLK1 (Homo sapiens, UniProt P53350)", "sequence (P53350 whole entry)": "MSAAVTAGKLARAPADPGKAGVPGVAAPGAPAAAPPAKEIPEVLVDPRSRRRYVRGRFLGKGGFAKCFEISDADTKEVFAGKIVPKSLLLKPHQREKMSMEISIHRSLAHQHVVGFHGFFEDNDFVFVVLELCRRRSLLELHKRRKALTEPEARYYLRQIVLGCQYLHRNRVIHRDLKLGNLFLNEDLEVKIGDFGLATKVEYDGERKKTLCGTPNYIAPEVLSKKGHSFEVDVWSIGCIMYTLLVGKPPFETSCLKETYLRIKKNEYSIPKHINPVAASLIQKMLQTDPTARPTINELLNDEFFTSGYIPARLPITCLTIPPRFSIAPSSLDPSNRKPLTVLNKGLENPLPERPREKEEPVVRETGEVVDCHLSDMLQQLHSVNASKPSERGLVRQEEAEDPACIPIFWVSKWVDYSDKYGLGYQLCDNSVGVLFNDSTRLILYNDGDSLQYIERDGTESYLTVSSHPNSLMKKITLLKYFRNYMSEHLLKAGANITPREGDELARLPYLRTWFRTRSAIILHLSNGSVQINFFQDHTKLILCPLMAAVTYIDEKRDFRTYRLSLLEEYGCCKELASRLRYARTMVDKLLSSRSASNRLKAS", "in_short": "as §1"}, "[24]": {"target": "PRKD2 (Homo sapiens, UniProt Q9BZL6)", "in_short": "as §1"}, "[25]": {"target": "RET(V804M) (Homo sapiens, UniProt P07949, V804M)", "in_short": "as §1"}, "[26]": {"target": "RIOK2 (Homo sapiens, UniProt Q9BVS4)", "sequence (Q9BVS4 whole entry)": "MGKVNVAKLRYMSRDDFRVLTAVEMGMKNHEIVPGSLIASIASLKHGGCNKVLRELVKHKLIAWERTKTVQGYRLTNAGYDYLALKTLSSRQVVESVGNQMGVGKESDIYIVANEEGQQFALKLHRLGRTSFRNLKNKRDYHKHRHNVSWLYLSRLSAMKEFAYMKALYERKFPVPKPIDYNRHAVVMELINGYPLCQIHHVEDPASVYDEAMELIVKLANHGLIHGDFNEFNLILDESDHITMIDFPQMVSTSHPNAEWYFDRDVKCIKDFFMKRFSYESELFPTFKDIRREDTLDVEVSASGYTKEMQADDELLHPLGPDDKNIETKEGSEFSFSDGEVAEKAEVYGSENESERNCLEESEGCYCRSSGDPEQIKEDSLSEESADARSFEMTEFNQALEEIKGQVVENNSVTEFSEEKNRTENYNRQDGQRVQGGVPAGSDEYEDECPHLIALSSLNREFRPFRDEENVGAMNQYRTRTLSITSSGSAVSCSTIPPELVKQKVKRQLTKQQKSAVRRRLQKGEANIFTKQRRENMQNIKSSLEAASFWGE", "in_short": "as §1"}, "[27]": {"target": "T8, TRKB (Homo sapiens, UniProt Q16620)", "T8 construct": "gene NTRK2", "T8 sequence (Q16620 whole entry)": "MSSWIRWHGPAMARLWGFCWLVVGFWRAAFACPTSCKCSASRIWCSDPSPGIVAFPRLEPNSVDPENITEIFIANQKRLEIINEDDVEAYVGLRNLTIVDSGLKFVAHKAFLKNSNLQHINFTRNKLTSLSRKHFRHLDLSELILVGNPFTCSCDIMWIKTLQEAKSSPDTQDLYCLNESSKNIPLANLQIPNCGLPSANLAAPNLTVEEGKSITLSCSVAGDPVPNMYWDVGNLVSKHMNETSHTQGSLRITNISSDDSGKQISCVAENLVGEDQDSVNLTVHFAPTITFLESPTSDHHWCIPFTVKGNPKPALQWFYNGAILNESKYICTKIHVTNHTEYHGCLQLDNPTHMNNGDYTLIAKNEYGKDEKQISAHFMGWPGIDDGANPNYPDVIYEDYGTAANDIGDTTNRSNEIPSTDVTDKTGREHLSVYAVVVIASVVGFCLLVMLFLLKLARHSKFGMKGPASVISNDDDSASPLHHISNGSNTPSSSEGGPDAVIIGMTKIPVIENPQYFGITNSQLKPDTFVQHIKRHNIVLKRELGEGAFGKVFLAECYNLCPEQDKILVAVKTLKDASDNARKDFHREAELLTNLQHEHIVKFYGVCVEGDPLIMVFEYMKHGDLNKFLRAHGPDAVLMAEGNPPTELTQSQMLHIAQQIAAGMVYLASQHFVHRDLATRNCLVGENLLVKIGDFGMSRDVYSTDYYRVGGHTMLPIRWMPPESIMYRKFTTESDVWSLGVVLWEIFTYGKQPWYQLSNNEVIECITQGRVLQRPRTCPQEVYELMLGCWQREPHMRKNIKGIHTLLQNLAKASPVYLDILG", "in_short": "as §1"}}}
{"compound": "[O-][S@@+](Cc1cncs1)C(c1ccccc1)c1ccccc1", "note": "[S-CE-123, (S)-5-((Benzhydrylsulfinyl)Methyl)Thiazole]", "values": [{"measurement": "remaining binding at 2.8 µM", "setting": "[1]", "result": 99, "unit": "%"}, {"measurement": "remaining binding at 2.8 µM", "setting": "[2]", "result": 78, "unit": "%"}, {"measurement": "remaining binding at 2.8 µM", "setting": "[3]", "result": 100, "unit": "%"}, {"measurement": "remaining binding at 2.8 µM", "setting": "[4]", "result": 90, "unit": "%"}, {"measurement": "remaining binding at 2.8 µM", "setting": "[5]", "result": 87, "unit": "%"}, {"measurement": "remaining binding at 2.8 µM", "setting": "[6]", "result": 96, "unit": "%"}, {"measurement": "remaining binding at 2.8 µM", "setting": "[7]", "result": 89, "unit": "%"}, {"measurement": "remaining binding at 2.8 µM", "setting": "[8]", "result": 100, "unit": "%"}, {"measurement": "remaining binding at 2.8 µM", "setting": "[9]", "result": 100, "unit": "%"}, {"measurement": "remaining binding at 2.8 µM", "setting": "[10]", "result": 91, "unit": "%"}, {"measurement": "remaining binding at 2.8 µM", "setting": "[11]", "result": 100, "unit": "%"}, {"measurement": "remaining binding at 2.8 µM", "setting": "[12]", "result": 96, "unit": "%"}, {"measurement": "remaining binding at 2.8 µM", "setting": "[13]", "result": 100, "unit": "%"}, {"measurement": "remaining binding at 2.8 µM", "setting": "[14]", "result": 94, "unit": "%"}, {"measurement": "remaining binding at 2.8 µM", "setting": "[15]", "result": 89, "unit": "%"}, {"measurement": "remaining binding at 2.8 µM", "setting": "[16]", "result": 96, "unit": "%"}, {"measurement": "remaining binding at 2.8 µM", "setting": "[17]", "result": 90, "unit": "%"}, {"measurement": "remaining binding at 2.8 µM", "setting": "[18]", "result": 98, "unit": "%"}, {"measurement": "remaining binding at 2.8 µM", "setting": "[19]", "result": 93, "unit": "%"}, {"measurement": "remaining binding at 2.8 µM", "setting": "[20]", "result": 99, "unit": "%"}, {"measurement": "remaining binding at 2.8 µM", "setting": "[21]", "result": 70, "unit": "%"}, {"measurement": "remaining binding at 2.8 µM", "setting": "[22]", "result": 94, "unit": "%"}, {"measurement": "remaining binding at 2.8 µM", "setting": "[23]", "result": 79, "unit": "%"}, {"measurement": "remaining binding at 2.8 µM", "setting": "[24]", "result": 98, "unit": "%"}, {"measurement": "remaining binding at 2.8 µM", "setting": "[25]", "result": 95, "unit": "%"}, {"measurement": "remaining binding at 2.8 µM", "setting": "[26]", "result": 99, "unit": "%"}, {"measurement": "remaining binding at 2.8 µM", "setting": "[27]", "result": 100, "unit": "%"}]}
